# Values of other authors, collected in patent US20230149445A1, “OXIDATIVE STRESS INHIBITOR AND ANTIOXIDANT AGENT” (BOSQUET Silicon Corp., priority 2020, published 2023).
# Settings: water at 25° C.
smiles,measurement,value
"[HH] [hydrogen (H2), hydrogen]",saturated solubility in water,1.6 ppm
